Source: ChEMBL document CHEMBL1811755, “α-Tocotrienol quinone modulates oxidative stress response and the biochemistry of aging” (Bioorg Med Chem Lett, 2011)
Blank lines part the entries; values can stand above or below the compound they belong to. Calls of active or inactive are those of the source. No cut-off for these calls is given here.

What was measured:
Salmonella typhimurium = experiment: Mutagenic activity in Salmonella Typhimurium by Ames test; format: toxicity, organism-based; conditions: salmonella enterica subsp. enterica serovar typhimurium
Brain [1] = experiment: AUC (infinity) in mouse brain at 25 mg/kg, ip; format: ADME, organism-based; set-up: time infinity, dose 25 mg/kg, route intraperitoneal; conditions: in vivo
[2] = Drug level in dog cornea at 300 mg/kg/day, po qd for 7 days; format: ADME, organism-based, Canis lupus familiaris; set-up: route oral; conditions: read-out: Drug uptake
[3] = Bioavailability in fasted rat plasma at 25 mg/kg, po; format: ADME, organism-based
[4] = AUCt in dog plasma at 2 mg/kg, iv; format: ADME, organism-based, Canis lupus familiaris; set-up: dose 2 mg/kg, route intravenous
Serum = experiment: Drug level in mouse serum at 25 mg/kg, ip; format: ADME, organism-based; set-up: dose 25 mg/kg, route intraperitoneal; conditions: in vivo
[5] = Volume of distribution at steady state in rat plasma at 2 mg/kg, iv; format: ADME, organism-based; set-up: dose 2 mg/kg, route intravenous; conditions: read-out: Vdss
[6] = AUC (infinity) in mouse plasma at 25 mg/kg, ip; format: ADME, organism-based; set-up: time infinity, dose 25 mg/kg, route intraperitoneal
[7] = Bioavailability in fed rat plasma at 10 mg/kg, po; format: ADME, organism-based
[8] = AUC (infinity) in dog plasma at 2 mg/kg, iv; format: ADME, organism-based, Canis lupus familiaris; set-up: dose 2 mg/kg, route intravenous, time infinity
[9] = AUC (infinity) in dog plasma at 10 mg/kg, po; format: ADME, organism-based, Canis lupus familiaris; set-up: time infinity, dose 10 mg/kg, route oral
[10] = Drug level in dog retina at 300 mg/kg/day, po qd for 7 days; format: ADME, organism-based, Canis lupus familiaris; set-up: route oral; conditions: read-out: Drug uptake
[11] = Cmax in rat plasma at 25 mg/kg, po; format: ADME, organism-based; set-up: dose 25 mg/kg, route oral
[12] = Tmax in dog plasma at 10 mg/kg, po; format: ADME, organism-based, Canis lupus familiaris; set-up: dose 10 mg/kg, route oral
[13] = Terminal half life in rat plasma at 10 mg/kg, po; format: ADME, organism-based; set-up: dose 10 mg/kg, route oral; conditions: read-out: beta t1/2 (converted)
[14] = Terminal half life in dog plasma at 2 mg/kg, iv; format: ADME, organism-based, Canis lupus familiaris; set-up: dose 2 mg/kg, route intravenous; conditions: read-out: beta t1/2 (converted)
[15] = Cmax in mouse plasma at 25 mg/kg, ip; format: ADME, organism-based; set-up: dose 25 mg/kg, route intraperitoneal
Rattus norvegicus [16] = experiment: Prolongation of prothrombin time in rat at 100 mg/kg/day, po; format: functional, organism-based
[17] = AUCt in dog plasma at 10 mg/kg, po; format: ADME, organism-based, Canis lupus familiaris; set-up: dose 10 mg/kg, route oral
[18] = Apparent volume of distribution in dog plasma at 2 mg/kg, iv; format: ADME, organism-based, Canis lupus familiaris; set-up: dose 2 mg/kg, route intravenous; conditions: read-out: Vz
[19] = Terminal half life in dog plasma at 10 mg/kg, po; format: ADME, organism-based, Canis lupus familiaris; set-up: dose 10 mg/kg, route oral; conditions: read-out: beta t1/2 (converted)
[20] = Tmax in rat plasma at 25 mg/kg, po; format: ADME, organism-based; set-up: dose 25 mg/kg, route oral
Mus musculus [21] = experiment: Ratio of drug level in mouse brain to serum at 25 mg/kg, ip
[22] = Apparent volume of distribution in rat plasma at 2 mg/kg, iv; format: ADME, organism-based; set-up: dose 2 mg/kg, route intravenous; conditions: read-out: Vz
[23] = AUCt in rat plasma at 25 mg/kg, po; format: ADME, organism-based; set-up: dose 25 mg/kg, route oral
Plasma [24] = experiment: AUC (infinity) in rat plasma at 2 mg/kg, iv; format: ADME, organism-based; set-up: time infinity, dose 2 mg/kg, route intravenous; conditions: in vivo
[25] = AUCt in mouse plasma at 25 mg/kg, ip; format: ADME, organism-based; set-up: dose 25 mg/kg, route intraperitoneal
Canis familiaris [26] = experiment: Prolongation of activated partial thromboplastin time in dog at 100 mg/kg/day, po; format: functional, organism-based; conditions: Canis lupus familiaris
[27] = Tmax in mouse brain at 25 mg/kg, ip; format: ADME, organism-based; set-up: dose 25 mg/kg, route intraperitoneal
Rattus norvegicus [28] = experiment: Prolongation of activated partial thromboplastin time in rat at 100 mg/kg/day, po; format: functional, organism-based
[29] = Clearance in dog plasma at 2 mg/kg, iv; format: ADME, organism-based, Canis lupus familiaris; set-up: dose 2 mg/kg, route intravenous
[30] = Terminal half life in mouse plasma at 25 mg/kg, ip; format: ADME, organism-based; set-up: dose 25 mg/kg, route intraperitoneal; conditions: read-out: beta t1/2 (converted)
[31] = AUCt in rat plasma at 2 mg/kg, iv; format: ADME, organism-based; set-up: dose 2 mg/kg, route intravenous
[32] = Terminal half life in mouse brain at 25 mg/kg, ip; format: ADME, organism-based; set-up: dose 25 mg/kg, route intraperitoneal; conditions: read-out: beta t1/2 (converted)
[33] = Toxicity in rat administered orally once daily for 28 days; format: organism-based; conditions: in vivo, po
[34] = Cmax in dog plasma at 10 mg/kg, po; format: ADME, organism-based, Canis lupus familiaris; set-up: dose 10 mg/kg, route oral
[35] = Tmax in mouse plasma at 25 mg/kg, ip; format: ADME, organism-based; set-up: dose 25 mg/kg, route intraperitoneal
Plasma [36] = experiment: Volume of infusion in rat plasma at 2 mg/kg, iv; format: ADME, organism-based; set-up: dose 2 mg/kg, route intravenous; conditions: in vivo
[37] = Cmax in rat plasma at 10 mg/kg, po; format: ADME, organism-based; set-up: dose 10 mg/kg, route oral
Heart = experiment: Drug level in mouse heart at 25 mg/kg, ip; format: ADME, organism-based; set-up: dose 25 mg/kg, route intraperitoneal; conditions: in vivo
Fibroblast [38] = experiment: Ratio of compound EC50 to co-enzyme Q10 EC50 for cytoprotectant activity in Friedreich ataxia patient fibroblasts; format: functional, Homo sapiens
[39] = Cytoprotectant activity against L-buthionine-(S,R)-sulfoximine-induced cell death in Friedreich ataxia patient fibroblasts assessed as increase of cell viability; format: functional, cell-based; conditions: Homo sapiens, Fibroblast
[40] = Bioavailability in dog plasma at 10 mg/kg, po; format: ADME, organism-based, Canis lupus familiaris
Mus musculus [41] = experiment: Ratio of drug level in mouse heart to serum at 25 mg/kg, ip; conditions: other tissue
[42] = AUC (infinity) in rat plasma at 10 mg/kg, po; format: ADME, organism-based; set-up: time infinity, dose 10 mg/kg, route oral
Canis familiaris [43] = experiment: Prolongation of prothrombin time in dog at 100 mg/kg/day, po; format: functional, organism-based; conditions: Canis lupus familiaris
Fibroblast [44] = experiment: Ratio of compound EC50 to idebenone EC50 for cytoprotectant activity in Friedreich ataxia patient fibroblasts; format: functional, Homo sapiens
[45] = Cmax in mouse brain at 25 mg/kg, ip; format: ADME, organism-based; set-up: dose 25 mg/kg, route intraperitoneal
[46] = Tmax in human plasma at 2 mg/kg, po; format: ADME, organism-based; set-up: dose 2 mg/kg, route oral
Brain [47] = experiment: AUCt in mouse brain at 25 mg/kg, ip; format: ADME, organism-based; set-up: dose 25 mg/kg, route intraperitoneal; conditions: in vivo
CHO = experiment: Genotoxicity in CHO cells assessed as induction of micronucleus; format: toxicity, cell-based, Cricetulus griseus; conditions: chinese hamster
[48] = Terminal half life in rat plasma at 2 mg/kg, iv; format: ADME, organism-based; set-up: dose 2 mg/kg, route intravenous; conditions: read-out: beta t1/2 (converted)
[49] = Cmax in human plasma at 2 mg/kg, po; format: ADME, organism-based; set-up: dose 2 mg/kg, route oral
[50] = Tmax in rat plasma at 10 mg/kg, po; format: ADME, organism-based; set-up: dose 10 mg/kg, route oral
Fibroblast [51] = experiment: Ratio of compound EC50 to resveratrol EC50 for cytoprotectant activity in Friedreich ataxia patient fibroblasts; format: functional, Homo sapiens
[52] = Cytoprotectant activity against L-buthionine-(S,R)-sulfoximine-induced cell death in Leigh syndrome patient fibroblasts assessed as increase of cell viability; format: functional, cell-based; conditions: Homo sapiens, Fibroblast
[53] = Volume of distribution at steady state in dog plasma at 2 mg/kg, iv; format: ADME, organism-based, Canis lupus familiaris; set-up: dose 2 mg/kg, route intravenous; conditions: read-out: Vdss
[54] = Plasma concentration in dog at 300 mg/kg/day, po qd for 7 days; format: ADME, organism-based, Canis lupus familiaris; set-up: route oral
[55] = Toxicity in dog administered orally once daily for 28 days; format: organism-based, Canis lupus familiaris; conditions: in vivo, po
[56] = AUCt in rat plasma at 10 mg/kg, po; format: ADME, organism-based; set-up: dose 10 mg/kg, route oral
Plasma [57] = experiment: Volume of infusion in dog plasma at 2 mg/kg, iv; format: ADME, organism-based, Canis lupus familiaris; set-up: dose 2 mg/kg, route intravenous; conditions: in vivo
Fibroblast [58] = experiment: Cytoprotectant activity against L-buthionine-(S,R)-sulfoximine-induced cell death in Friedreich ataxia patient fibroblasts assessed as increase of cell viability up to 1000 nM; format: functional, cell-based; conditions: Homo sapiens
Fibroblast [59] = experiment: Cytoprotectant activity against L-buthionine-(S,R)-sulfoximine-induced cell death in Leigh syndrome patient fibroblasts assessed as increase of cell viability up to 1000 nM; format: functional, cell-based; conditions: Homo sapiens
Rattus norvegicus [60] = experiment: In vivo metabolic stability in rat assessed as parent compound remaining at 25 mg/kg, po; format: ADME, organism-based; set-up: dose 25 mg/kg, route oral
Rattus norvegicus [61] = experiment: In vivo metabolic stability in rat assessed as parent compound remaining at 5 mg/kg, iv; format: ADME, organism-based; set-up: dose 5 mg/kg, route intravenous

- AUC (Brain [1]): 10724 ng·h/g
- concentration at 168 h [2]: 755 ng/g
- bioavailability [3]: 4.1%
- AUC(0-t) [4]: 3410 ng·h/mL
- Drug uptake (Serum): 300 ng/mL
- Vd [5]: 0.222 L/kg
- AUC(0-inf) [6]: 5860 ng·h/mL
- bioavailability [7]: 89%
- AUC(0-inf) [8]: 3570 ng·h/mL
- AUC(0-inf) [9]: 2820 ng·h/mL
- concentration at 168 h [10]: 11200 ng/g
- Cmax [11]: 248 ng/mL
- Tmax [12]: 2.8 h
- half-life [13]: 3.5 h
- half-life [14]: 7.5 h
- Cmax [15]: 1190 ng/mL
- AUC(0-t) [17]: 2690 ng·h/mL
- Vd [18]: 6.25 L/kg
- half-life [19]: 7.6 h
- Tmax [20]: 4 h
- Ratio (Mus musculus [21]): 1.83 mL/g
- Vd [22]: 3.73 L/kg
- AUC(0-t) [23]: 961 ng·h/mL
- AUC (Plasma [24]): 1069 ng·h/mL
- AUC(0-t) [25]: 4840 ng·h/mL
- Tmax [27]: 12 h
- clearance [29]: 9.57 mL/min/kg
- half-life [30]: 7.6 h
- AUC(0-t) [31]: 984 ng·h/mL
- half-life [32]: 12.4 h
- Cmax [34]: 442 ng/mL
- Tmax [35]: 0.5 h
- Vi (Plasma [36]): 0.117 L/kg
- Cmax [37]: 931 ng/mL
- Drug uptake (Heart): 848 ng/g
- bioavailability [40]: 17%
- Ratio (Mus musculus [41]): 0.71 mL/g
- AUC(0-inf) [42]: 4780 ng·h/mL
- Cmax [45]: 539 ng/g
- Tmax [46]: 2 h
- AUCt (Brain [47]): 7738 ng·h/g
- half-life [48]: 3.5 h
- Cmax [49]: 167 ng/mL
- Tmax [50]: 3.5 h
- Vd [53]: 2.54 L/kg
- concentration at 168 h [54]: 10000 ng/mL
- AUC(0-t) [56]: 4730 ng·h/mL
- Vi (Plasma [57]): 0.095 L/kg
Compound: CC(C)=CCC/C(C)=C/CC/C(C)=C/CC[C@@](C)(O)CCC1=C(C)C(=O)C(C)=C(C)C1=O [VATIQUINONE]
- Activity (Salmonella typhimurium): Non-toxic
- Activity (Rattus norvegicus [16]): Active
- Activity (Canis familiaris [26]): Active
- Activity (Rattus norvegicus [28]): Active
- NOAEL at 672 h [33]: 100 mg/kg
- Ratio EC50 (Fibroblast [38]): 100
- EC50 [39]: 24 nM
- Activity (Canis familiaris [43]): Active
- Ratio EC50 (Fibroblast [44]): 100
- Activity (CHO): Non-toxic
- Ratio EC50 (Fibroblast [51]): 100
- EC50 [52]: 30 nM
- NOAEL at 672 h [55]: 100 mg/kg

Compound: COC1=C(OC)C(=O)C(C/C=C(\C)CC/C=C(\C)CC/C=C(\C)CC/C=C(\C)CC/C=C(\C)CC/C=C(\C)CC/C=C(\C)CC/C=C(\C)CC/C=C(\C)CCC=C(C)C)=C(C)C1=O
- Activity (Fibroblast [58]): inactive
- Activity (Fibroblast [59]): inactive

Compound: COC1=C(OC)C(=O)C(CCCCCCCCCCO)=C(C)C1=O [IDEBENONE]
- EC50 [39]: 850 nM

Compound: Oc1ccc(/C=C/c2cc(O)cc(O)c2)cc1 [RESVERATROL]
- EC50 [39]: 1440 nM

- Stability (Rattus norvegicus [60]): 5%
- Stability (Rattus norvegicus [61]): 7%
Compound: CC(C)=CCC/C(C)=C/CC/C(C)=C/CC[C@]1(C)CCc2c(C)c(O)c(C)c(C)c2O1 [ALPHA-TOCOTRIENOL]
